From US20250206729A1, “DUAL RAF AND TUBULIN INHIBITORS AND METHODS OF USE THEREOF” (Deciphera Pharmaceuticals, LLC, priority 2023, published 2025)
Like-named read-outs stand apart in the source and are kept apart here.

Experiments:
[1] = system: tubulin polymerization in HCT-116 cells; experiment: Cellular tubulin polymerization assay (HCT-116 cells); assay type: cell-based; details: HCT-116 cells, read-out: Tubulin Cellular
Description: HCT-116 cells (catalog #CCL-247) are obtained from the American Type Culture Collect (ATCC, Manassas, VA). Briefly, cells are grown in McCoy's 5A supplemented with 10% characterized fetal bovine serum (Invitrogen, Carlsbad, CA) and 1% Penicillin/Streptomycin/L-Glutamine at 37° C., 5% CO2, and 95% humidity. Cells are expanded until reaching 70-95% confluency at which point they are sub-cultured or harvested for assay use. 450000 cells are added per well in 1500 μL complete growth medium in a tissue culture treated, 12-well plate. Plates are incubated for 18 to 24 h at 37° C., 5% CO2, and 95% humidity. At the end of the incubation, 2000 μL of base culture media is added to each well, followed by a serial dilution of compound. Plates are incubated for an additional 1 h at 37° C., 5% CO2, and 95% humidity. Lysates are generated by the addition of 100 μL Lysis and Microtubule Stabilization Buffer 1 (LMSO1, Cytoskeleton Inc, Denver, CO) supplemented with GTP (BST06, Cytoskeleton Inc), ATP (BSA04, Cytoskeleton Inc), and Protease Inhibitor Cocktail Stock (PIC02, Cytoskeleton Inc). Cells are scraped off wells using a rubber cell scraper and collected in a clean 96-well plate. Lysates are centrifuged at 1000× g, 37° C. for 10 min and supernatant fraction is placed into an additional 96-well plate. The remaining pellet fraction is reconstituted in 100 μL LMS01 buffer and sonicated for 10 min. Pellet and Supernatant fractions are probed for α-tubulin via western blot analysis on the Jess System or equivalent (Bio-techne, Minneapolis, MN). Data is analyzed using Prism software (Graphpad, San Diego, CA) to calculate IC50 values.

[2] = target: T1, B-Raf kinase (SEQ ID NO: 1) (Homo sapiens, UniProt P15056); experiment: Biochemical assay for B-Raf (coupled pyruvate kinase/lactate dehydrogenase)
T1 construct: GST (N); purchased Sigma

[3] = target: T2, C-Raf kinase (SEQ ID NO: 2) (Homo sapiens, UniProt P04049, Y340D/Y341D); experiment: Biochemical assay for C-Raf (coupled pyruvate kinase/lactate dehydrogenase)
T2 construct: C-Raf residues 306-end; Y340D, Y341D with N-; GST (N); purchased Sigma

MiaPaca-2 cells = experiment: MiaPaca-2 cell proliferation assay; assay type: cell-based; details: Homo sapiens, MIA PaCa-2
HCT-116 cells = experiment: HCT-116 cell proliferation assay; assay type: cell-based; details: Homo sapiens
HPAF-II cells = experiment: HPAF-II cell proliferation assay; assay type: cell-based; details: Homo sapiens
Pa16c cells = experiment: Pa16c cell proliferation assay; assay type: cell-based; details: 67 to 72 h incubation, resazurin; read-out: Pa16c (inhibition of cell proliferation, IC50)
[4] = Table 4, mutant KRAS pancreatic cancer cell line, anti-proliferative, read-out: MiaPaca-2
[5] = Table 4, mutant KRAS colorectal cancer cell line, anti-proliferative, read-out: HCT-116
[6] = Table 4, mutant KRAS pancreatic cancer cell line, anti-proliferative, read-out: HPAF-II
[7] = 1 mM ATP, read-out: BRAF (inhibition of biochemical activity, IC50)
[8] = 1 mM ATP, read-out: CRAF (inhibition of biochemical activity, IC50)
[9] = 67-72 h incubation, resazurin, read-out: MiaPaca-2 (inhibition of cell proliferation, IC50)
[10] = Table 3, mutant KRAS pancreatic cancer cell line, anti-proliferative, read-out: MiaPaca-2
[11] = HCT-116, 67 to 72 h incubation, resazurin, read-out: HCT-116 (inhibition of cell proliferation, IC50)
[12] = Table 3, mutant KRAS colorectal cancer cell line, anti-proliferative, read-out: HCT-116
[13] = HPAF-II, 115 to 120 h incubation, resazurin, read-out: HPAF-II (inhibition of cell proliferation, IC50)
[14] = Table 3, mutant KRAS pancreatic cancer cell line, anti-proliferative, read-out: HPAF-II

T1 sequence (P15056 416-766): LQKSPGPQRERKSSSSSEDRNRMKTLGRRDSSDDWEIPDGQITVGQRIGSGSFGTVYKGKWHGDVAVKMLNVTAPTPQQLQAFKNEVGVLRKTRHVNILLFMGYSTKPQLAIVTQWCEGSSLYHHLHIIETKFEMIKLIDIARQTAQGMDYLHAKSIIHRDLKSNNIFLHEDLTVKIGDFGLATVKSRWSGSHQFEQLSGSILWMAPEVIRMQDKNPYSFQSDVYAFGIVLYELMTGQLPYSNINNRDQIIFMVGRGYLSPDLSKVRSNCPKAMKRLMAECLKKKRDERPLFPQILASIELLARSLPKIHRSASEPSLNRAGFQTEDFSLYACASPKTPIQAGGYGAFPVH
T2 sequence (P04049 307-648 Y340D/Y341D): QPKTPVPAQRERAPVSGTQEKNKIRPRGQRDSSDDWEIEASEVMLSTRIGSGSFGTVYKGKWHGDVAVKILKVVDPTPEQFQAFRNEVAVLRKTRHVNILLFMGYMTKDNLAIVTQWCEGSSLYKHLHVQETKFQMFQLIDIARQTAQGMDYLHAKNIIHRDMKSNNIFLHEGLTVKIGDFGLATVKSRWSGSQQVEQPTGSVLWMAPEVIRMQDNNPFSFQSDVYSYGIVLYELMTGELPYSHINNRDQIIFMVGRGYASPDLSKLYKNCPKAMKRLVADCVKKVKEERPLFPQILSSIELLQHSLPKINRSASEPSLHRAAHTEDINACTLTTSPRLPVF

IC50 ([2]; Table 4, read-out: BRAF)	IC50 ([3]; Table 4, read-out: CRAF)	IC50 ([1]; Table 3)	IC50 [2, 7]	IC50 ([2]; Table 3, read-out: BRAF)	IC50 [3, 8]	IC50 ([3]; Table 3, read-out: CRAF)	IC50 (MiaPaca-2 cells; [9])	IC50 (MiaPaca-2 cells; [10])	IC50 (HCT-116 cells; [11])	IC50 (HCT-116 cells; [12])	SMILES	IC50 ([1]; Table 4)	IC50 (MiaPaca-2 cells; [4])	IC50 (HCT-116 cells; [5])	IC50 (HPAF-II cells; [6])	IC50 (HPAF-II cells; [13])	IC50 (HPAF-II cells; [14])	IC50 (Pa16c cells)
< 100 nM	< 100 nM	–	–	–	–	–	–	–	–	–	Cc1ccc2c(Nc3cccc(Cl)c3F)nccc2c1NC(=O)c1csc2c(N)ncnc12 [Belvarafenib, reference compound]	1000 to 10000 nM	1000 to 10000 nM	500 to 1000 nM	1000 to 10000 nM	–	–	–
–	–	< 100 nM	< 100 nM	< 100 nM	< 100 nM	< 100 nM	< 100 nM	< 100 nM	< 100 nM	< 100 nM	Cc1ccc(NC(=O)c2cc(C3CCC3)cnn2)cc1-c1cc(N[C@H](C)CO)nc(N2CCOCC2)c1 [Example 48]	–	–	–	–	500 to 1000 nM	500 to 1000 nM	< 100 nM
–	–	< 100 nM	< 100 nM	< 100 nM	< 100 nM	< 100 nM	100 to 500 nM	100 to 500 nM	100 to 500 nM	100 to 500 nM	Cc1ccc(NC(=O)c2cc(C(C)C)cnn2)cc1-c1cc(N[C@H](C)CO)nc(N2CCOCC2)c1 [Example 14]	–	–	–	–	100 to 500 nM	100 to 500 nM	1000 to 10000 nM
–	–	100 to 500 nM	100 to 500 nM	100 to 500 nM	100 to 500 nM	100 to 500 nM	< 100 nM	< 100 nM	< 100 nM	< 100 nM	Cc1ccc(NC(=O)c2cc(C(F)(F)F)cnn2)cc1-c1cc(N2CCOCC2)nc(OCCO)n1 [Example 44]	–	–	–	–	< 100 nM	< 100 nM	< 100 nM
–	–	< 100 nM	1000 to 10000 nM	1000 to 10000 nM	1000 to 10000 nM	1000 to 10000 nM	< 100 nM	< 100 nM	100 to 500 nM	100 to 500 nM	Cc1ccc(NC(=O)c2cc(C(F)(F)F)cnn2)cc1-c1ccnc(N2CCOCC2)n1 [Example 29]	–	–	–	–	100 to 500 nM	100 to 500 nM	100 to 500 nM
–	–	100 to 500 nM	< 100 nM	< 100 nM	< 100 nM	< 100 nM	< 100 nM	< 100 nM	< 100 nM	< 100 nM	Cc1ccc(NC(=O)c2cc(C(C)(C)F)cnn2)cc1-c1cc(OCCO)nc(N2CCOCC2)c1 [Example 34]	–	–	–	–	< 100 nM	< 100 nM	< 100 nM
–	–	–	–	–	–	–	–	–	–	–	Cc1ccc(NC(=O)N2CC[C@@H](CC(F)(F)F)C2)cc1-c1cc(N[C@H](C)CO)nc(N2CCOCC2)c1 [Exarafenib, reference compound]	1000 to 10000 nM	1000 to 10000 nM	500 to 1000 nM	1000 to 10000 nM	–	–	–
–	–	< 100 nM	< 100 nM	< 100 nM	< 100 nM	< 100 nM	< 100 nM	< 100 nM	< 100 nM	< 100 nM	Cc1ccc(NC(=O)c2cc(C(F)(F)F)cnn2)cc1-c1cc(N[C@H](C)CO)nc(N2CCOCC2)c1 [Example 19]	–	–	–	–	< 100 nM	< 100 nM	< 100 nM
–	–	< 100 nM	< 100 nM	< 100 nM	< 100 nM	< 100 nM	< 100 nM	< 100 nM	< 100 nM	< 100 nM	Cc1ccc(NC(=O)c2cc(C(F)(F)F)cnn2)cc1-c1ccnc(N2CC3CCC(C2)O3)c1 [Example 83]	–	–	–	–	< 100 nM	< 100 nM	< 100 nM
–	–	< 100 nM	< 100 nM	< 100 nM	< 100 nM	< 100 nM	< 100 nM	< 100 nM	< 100 nM	< 100 nM	Cc1ccc(NC(=O)c2cc(C3CC3)cnn2)cc1-c1cc(OCCO)nc(N2CCOCC2)c1 [Example 37]	–	–	–	–	< 100 nM	< 100 nM	< 100 nM
< 100 nM	< 100 nM	–	–	–	–	–	–	–	–	–	Cc1ccc(NC(=O)c2ccnc(C(F)(F)F)c2)cc1-c1cc(OCCO)nc(N2CCOCC2)c1 [Naporafenib, reference compound]	1000 to 10000 nM	1000 to 10000 nM	1000 to 10000 nM	1000 to 10000 nM	–	–	–
–	–	< 100 nM	< 100 nM	< 100 nM	< 100 nM	< 100 nM	< 100 nM	< 100 nM	< 100 nM	< 100 nM	Cc1ccc(NC(=O)c2cc(C(F)(F)F)cnn2)cc1-c1cc(OCCO)nc(N2CCOCC2)c1 [Example 6]	–	–	–	–	< 100 nM	< 100 nM	< 100 nM
–	–	–	100 to 500 nM	–	< 100 nM	–	100 to 500 nM	–	100 to 500 nM	–	Cc1ccc(NC(=O)c2cc(C3CC3)cnn2)cc1-c1cncc(N2CCOCC2)c1 [Example 24]	–	–	–	–	100 to 500 nM	–	100 to 500 nM
–	–	–	1000 to 10000 nM	–	1000 to 10000 nM	–	< 100 nM	–	100 to 500 nM	–	Cc1ccc(NC(=O)c2cc(C(F)(F)F)cnn2)cc1-c1nc(OCCO)cc(N2CCOCC2)n1 [Example 43]	–	–	–	–	< 100 nM	–	100 to 500 nM
–	–	–	< 100 nM	–	< 100 nM	–	< 100 nM	–	< 100 nM	–	Cc1ccc(NC(=O)c2cc(C(C)(F)F)cnn2)cc1-c1cc(OCCO)nc(N2CCOCC2)c1 [Example 63]	–	–	–	–	< 100 nM	–	< 100 nM
–	–	–	–	–	–	–	–	–	–	–	C[C@@H](NC(=O)c1ncnc(N)c1Cl)c1ncc(C(=O)Nc2cc(C(F)(F)F)c(Cl)cn2)s1 [Tovorafenib, reference compound]	1000 to 10000 nM	1000 to 10000 nM	1000 to 10000 nM	1000 to 10000 nM	–	–	–
–	–	–	100 to 500 nM	–	< 100 nM	–	100 to 500 nM	–	100 to 500 nM	–	Cc1ccc(NC(=O)c2cc(C(F)(F)F)cnn2)cc1-c1cc(N2CCOCC2)nc(N[C@H](C)CO)n1 [Example 33]	–	–	–	–	100 to 500 nM	–	100 to 500 nM
–	–	–	1000 to 10000 nM	–	500 to 1000 nM	–	1000 to 10000 nM	–	500 to 1000 nM	–	Cc1ccc(NC(=O)c2cc(Cl)cnn2)cc1-c1ccnc(N2CCOCC2)c1 [Example 51]	–	–	–	–	500 to 1000 nM	–	1000 to 10000 nM
–	–	–	1000 to 10000 nM	–	1000 to 10000 nM	–	1000 to 10000 nM	–	1000 to 10000 nM	–	Cc1ccc(NC(=O)c2cc(Cl)cnn2)cc1-c1cc(N2CCOCC2)ncn1 [Example 74]	–	–	–	–	1000 to 10000 nM	–	1000 to 10000 nM
–	–	–	100 to 500 nM	–	< 100 nM	–	100 to 500 nM	–	100 to 500 nM	–	Cc1ccc(NC(=O)c2cc(C3CC3)cnn2)cc1-c1ccnc(N2CCOCC2)c1 [Example 2, 5-cyclopropyl-N-(4-methyl-3-(2-morpholinopyridin-4-yl)phenyl)pyridazine-3-carboxamide]	–	–	–	–	100 to 500 nM	–	1000 to 10000 nM
–	–	–	1000 to 10000 nM	–	500 to 1000 nM	–	500 to 1000 nM	–	500 to 1000 nM	–	Cc1ccc(NC(=O)c2cc(C3CC3)cnn2)cc1-c1nc(N[C@H](C)CO)cc(N2CCOCC2)n1 [Example 45]	–	–	–	–	500 to 1000 nM	–	1000 to 10000 nM
–	–	–	1000 to 10000 nM	–	1000 to 10000 nM	–	1000 to 10000 nM	–	1000 to 10000 nM	–	Cc1ccc(NC(=O)c2cc(C(F)(F)F)cnn2)cc1-c1cc(N2CCOCC2)cnn1 [Example 22]	–	–	–	–	1000 to 10000 nM	–	1000 to 10000 nM
–	–	–	100 to 500 nM	–	< 100 nM	–	500 to 1000 nM	–	500 to 1000 nM	–	Cc1ccc(NC(=O)c2cnc(C3CC3)nc2)cc1-c1cc(N[C@H](C)CO)nc(N2CCOCC2)c1 [Example 17]	–	–	–	–	500 to 1000 nM	–	1000 to 10000 nM
